Measured values reported in patent US8865724B2, “Preparation of 2-methyl-4-amino-5(substituted-1H-1,2,3-triazolyl)methylpyrimidine derivatives and microbicidal activity thereof” (Central China Normal University, priority 2011, dated 2014).
Where two headings read alike, the source gives them in different places.

What was measured:
[1] = test system: Cucumber Angular Leaf Spot; test: Microbicidal activity on cucumber seedlings, spray then inoculation (Embodiment 8); conditions: for Cucumber Angular Leaf Spot Average inhibition rate (%): testing concentration of 500 μg/g; for pest or weed control at 500 µg/g: Cucumis sativus, read-out: Cucumber Angular Leaf Spot Average inhibition rate (%)
Procedure: (§1) (Pseudomonassyringaepv. tomato (Okabe) Young, Dye & Wilkie), Cucumber Angular Leaf Spot, Rice Sheath Blight Disease (Rhizoctonia solani), Corynespora Leaf Spot of Cucumber (Corynespora cassiicola), Downy Mildew of Cucumber (Cucumber Downy Mildew).
(§2) Testing agents and control agents were sprayed uniformly at A.M. of a sunshine day on the cucumber seminal leaves. After 2 hours, the leaves were inoculated with pathogenic microbes and cultured at humidity. […] Strip inoculation is used for Rice Sheath Blight Disease and phytophthora blight of pepper, in which the liquor was sprayed and after 2 hours, inoculation of strips was performed followed by culturing at humidity. After full occurrence of diseases in the control group, state of illness was examined according to grading standards, and a disease index and inhibition rate were calculated.

[2] = test system: Cucumber Angular Leaf Spot; test: Microbicidal activity on cucumber seedlings, spray then inoculation (Embodiment 7); conditions: for Cucumber bacterial spot (%), controlling effect: testing concentration of 500 μg/g, cucumber seedling; for pest or weed control at 500 µg/g: Cucumis sativus, read-out: Cucumber bacterial spot (%), controlling effect
Procedure: Testing Materials: Strain: Cucumber Angular Leaf Spot
Testing method: a cucumber seedling at the stage of 2 seminal leaves was inoculated by spraying a suspension of Cucumber Angular Leaf Spot. Testing agents and control agents were sprayed uniformly on the seminal leaves at A.M. of a sunshine day respectively. After 2 hours, the leaves were inoculated with pathogenic microbes and cultured at humidity. After full occurrence of disease in control group, state of illness was examined according to grading standards, and the controlling effects were measured.

[3] = test system: wheat scab; test: microbe, parasite or virus in culture; type: cell-based, Gibberella zeae; conditions: for inhibition of growth at 100 µg/g: 48 h, read-out: Wheat scab Average inhibition rate (%); for Wheat scab (inhibition): Table 7
[4] = test system: Rice Sheath Blight Disease (sheath and culm blight of rice); test: Spawn growth rate on agar plates (Embodiment 9); type: cell-based, Rhizoctonia solani; conditions: 48 h; for inhibition of growth at 12.5 µg/g: Concentration 12.5 μg/g; for inhibition of growth at 25 µg/g: Concentration 25 μg/g; for inhibition of growth at 50 µg/g: Concentration 50 μg/g
[5] = test system: early blight of tomato; test: Spawn growth rate on agar plates (Embodiment 9); type: cell-based, Alternaria solania; conditions: for inhibition of growth at 100 µg/g: 48 h, testing concentration of 100 μg/g, Table 6; for Early blight of tomato (inhibition): Table 7
[6] = test system: gray mold of cucumber; test: Spawn growth rate on agar plates (Embodiment 9); type: cell-based, Botrytis cinerea; conditions: 48 h; for inhibition of growth at 12.5 µg/g: Concentration 12.5 μg/g; for inhibition of growth at 25 µg/g: Concentration 25 μg/g; for inhibition of growth at 50 µg/g: Concentration 50 μg/g
[7] = test system: Rice Sheath Blight Disease; test: Microbicidal activity, spray then strip inoculation (Embodiment 8); conditions: Oryza sativa, read-out: Rice Sheath Blight Disease Average inhibition rate (%)
Procedure: as §1, §2

[8] = testing concentration of 100 μg/g, Table 6, read-out: Sheath and culm blight of rice Average inhibition rate (%)
[9] = testing concentration of 100 μg/g, Table 6, read-out: Gray mold of cucumber Average inhibition rate (%)
[10] = testing concentration of 100 μg/g, Table 4, read-out: Gray mold of cucumber Average inhibition rate (%)
[11] = Concentration 100 μg/g, Table 7, read-out: Sheath and culm blight of rice (inhibition)
[12] = Concentration 100 μg/g, Table 7, read-out: Gray mold of cucumber (inhibition)

| Compound | inhibition of growth at 100 µg/g [3] [%] | inhibition of growth at 12.5 µg/g ([4]; Table 8) [%] | inhibition of growth at 25 µg/g ([4]; Table 8) [%] | inhibition of growth at 50 µg/g ([4]; Table 8) [%] | inhibition of growth at 100 µg/g [4, 8] [%] | inhibition of growth at 100 µg/g [5] [%] | inhibition of growth at 12.5 µg/g ([6]; Table 8) [%] | inhibition of growth at 25 µg/g ([6]; Table 8) [%] | inhibition of growth at 50 µg/g ([6]; Table 8) [%] | inhibition of growth at 100 µg/g [6, 9] [%] | melting point [°C] | other results |
| --- | --- | --- | --- | --- | --- | --- | --- | --- | --- | --- | --- | --- |
| Nc1nnc([S-])s1.Nc1nnc([S-])s1.[Cu+2] [Thiodiazole-copper, reference compound] |  |  |  |  |  |  |  |  |  |  |  | Cucumber Angular Leaf Spot Average inhibition rate (%) [1]: 66%; Cucumber bacterial spot (%), controlling effect [2]: 65.89% |
| Cc1ncc(Cn2nnc(COc3ccc(F)cc3Cl)c2I)c(N)n1 [Compound 27] | 39 | 0 | 37 | 72 | 94 | 38 | 59 | 66 | 92 | 99 | 187 to 189 |  |
| Cc1ncc(Cn2nnc(COc3ccccc3Cl)c2I)c(N)n1 [Compound 86] | 62 | 37 | 74 | 98 | 99 | 60 | 40 | 76 | 97 | 100 | 168 to 170 |  |
| Cc1ncc(Cn2nnc(COc3ccc(Cl)c(C)c3)c2I)c(N)n1 [Compound 25] | 62 | 0 | 25 | 61 | 97 | 71 | 40 | 50 | 67 | 96 | 215 to 217 |  |
| Cc1ncc(Cn2cc(COC(=O)c3ccccc3Cl)nn2)c(N)n1 [Compound 36] |  |  |  |  |  |  |  |  |  |  | 85 to 87 | pest or weed control at 500 µg/g [1]: 60%; pest or weed control at 500 µg/g [7]: 45%; inhibition of growth at 100 µg/g [6, 10]: 61%; pest or weed control at 500 µg/g [2]: 60% |
| Cc1ncc(Cn2cc(COC(=O)c3ccc(F)cc3)nn2)c(N)n1 [Compound 34] | 51 |  |  |  |  |  |  |  |  |  | 198 to 199 | pest or weed control at 500 µg/g [7]: 40%; inhibition of growth at 100 µg/g [6, 10]: 63%; pest or weed control at 500 µg/g [2]: 60% |
| Cc1ncc(Cn2nnc(COc3ccc(F)cc3)c2I)c(N)n1 [Compound 82] | 48 | 63 | 90 | 100 | 96 | 70 | 56 | 97 | 99 | 96 | 160 to 162 |  |
| Cc1ncc(Cn2cc(COC(=O)c3ccccc3F)nn2)c(N)n1 [Compound 37] | 51 |  |  |  |  |  |  |  |  |  | 124 to 125 | pest or weed control at 500 µg/g [1]: 37%; pest or weed control at 500 µg/g [7]: 50%; inhibition of growth at 100 µg/g [6, 10]: 98%; pest or weed control at 500 µg/g [2]: 70% |
| Cc1ncc(Cn2nnc(COc3ccc([N+](=O)[O-])cc3)c2I)c(N)n1 [Compound 24] | 68 |  |  |  | 97 | 66 |  |  |  | 84 | 215 to 217 |  |
| Cc1ncc(Cn2nnc(COc3ccc(Cl)cc3)c2I)c(N)n1 [Compound 28] | 67 | 87 | 96 | 98 | 100 | 69 | 85 | 90 | 98 | 100 | 183 to 185 | Wheat scab (inhibition) ([3]; Concentration 25 μg/g): 43%; Wheat scab (inhibition) ([3]; Concentration 50 μg/g): 64%; Wheat scab (inhibition) ([3]; Concentration 100 μg/g): 69%; inhibition of growth at 25 µg/g ([4]; Table 7): 91%; inhibition of growth at 50 µg/g ([4]; Table 7): 98%; inhibition of growth at 100 µg/g [4, 11]: 99%; Early blight of tomato (inhibition) ([5]; Concentration 25 μg/g): 0%; Early blight of tomato (inhibition) ([5]; Concentration 50 μg/g): 28%; Early blight of tomato (inhibition) ([5]; Concentration 100 μg/g): 68%; inhibition of growth at 25 µg/g ([6]; Table 7): 42%; inhibition of growth at 50 µg/g ([6]; Table 7): 86%; inhibition of growth at 100 µg/g [6, 12]: 90% |
| S=c1[nH]nc(NCNc2n[nH]c(=S)s2)s1 [Bismerthiazol, reference compound] |  |  |  |  |  |  |  |  |  |  |  | Cucumber Angular Leaf Spot Average inhibition rate (%) [1]: 73%; Cucumber bacterial spot (%), controlling effect [2]: 73.14% |
| COc1ccc(OCc2nnn(Cc3cnc(C)nc3N)c2I)cc1 [Compound 26] | 55 | 58 | 72 | 94 | 99 | 69 | 43 | 55 | 88 | 92 | 177 to 179 |  |
| Cc1ncc(Cn2nnc(COc3ccc(C#N)cc3)c2I)c(N)n1 [Compound 31] | 58 | 78 | 88 | 96 | 97 | 70 | 75 | 87 | 91 | 95 | 199 to 201 |  |
| Cc1ncc(Cn2nnc(COc3ccc(Cl)cc3C)c2I)c(N)n1 [Compound 29] | 67 | 33 | 68 | 69 | 98 | 60 | 47 | 72 | 91 | 100 | 163 to 165 | Wheat scab (inhibition) ([3]; Concentration 25 μg/g): 26%; Wheat scab (inhibition) ([3]; Concentration 50 μg/g): 45%; Wheat scab (inhibition) ([3]; Concentration 100 μg/g): 52%; inhibition of growth at 25 µg/g ([4]; Table 7): 64%; inhibition of growth at 50 µg/g ([4]; Table 7): 70%; inhibition of growth at 100 µg/g [4, 11]: 96%; Early blight of tomato (inhibition) ([5]; Concentration 25 μg/g): 0%; Early blight of tomato (inhibition) ([5]; Concentration 50 μg/g): 25%; Early blight of tomato (inhibition) ([5]; Concentration 100 μg/g): 41%; inhibition of growth at 25 µg/g ([6]; Table 7): 79%; inhibition of growth at 50 µg/g ([6]; Table 7): 90%; inhibition of growth at 100 µg/g [6, 12]: 100% |
| Cc1ncc(Cn2cc(COC(=O)c3ccc(Cl)cc3)nn2)c(N)n1 [Compound 33] | 55 |  |  |  |  |  |  |  |  |  | 188 to 189 | pest or weed control at 500 µg/g [7]: 55%; inhibition of growth at 100 µg/g [6, 10]: 61%; pest or weed control at 500 µg/g [2]: 60% |
